Source: ChEMBL document CHEMBL1148872, “Bradykinin B1 antagonists: biphenyl SAR studies in the cyclopropanecarboxamide series” (Bioorg Med Chem Lett, 2007)

How the values were obtained:
B1 bradykinin receptor = biological target: T1, B1 bradykinin receptor (Homo sapiens, UniProt P46663); assay: Binding affinity to human BK1 receptor
T1 sequence (P46663 whole entry): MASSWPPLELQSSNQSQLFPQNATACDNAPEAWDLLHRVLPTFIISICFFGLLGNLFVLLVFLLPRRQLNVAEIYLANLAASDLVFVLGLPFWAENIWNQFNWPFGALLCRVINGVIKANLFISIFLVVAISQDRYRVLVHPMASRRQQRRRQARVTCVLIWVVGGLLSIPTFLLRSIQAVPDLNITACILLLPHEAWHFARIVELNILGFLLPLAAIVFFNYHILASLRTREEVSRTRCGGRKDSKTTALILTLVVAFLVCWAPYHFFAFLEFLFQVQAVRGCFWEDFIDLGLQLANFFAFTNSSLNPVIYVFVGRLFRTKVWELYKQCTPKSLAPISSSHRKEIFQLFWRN

[1] = Apparent permeability of the compound; details: not told
[2] = Half life in Sprague-Dawley rat at 10 mg/kg, po or 2 mg/kg, iv; details: in vivo
[3] = Clearance in Sprague-Dawley rat at 10 mg/kg, po or 2 mg/kg, iv; details: in vivo
in vivo [4] = details: Sprague-Dawley, rat, po, 10 mg/kg
Description: Oral bioavailability in Sprague-Dawley rat at 10 mg/kg, po

[5] = Ratio of drug level in brain to plasma in african green monkey at 2 mg/kg, iv after 30 mins; details: chlorocebus aethiops
[6] = Partition coefficient, log P of the compound; details: octanol/water
[7] = biological target: T2, B1 bradykinin receptor (Homo sapiens) (UniProt P46663); assay: Receptor occupancy efficiency at human BK1 receptor in ex vivo transgenic receptor mouse occupancy model; type: functional
T2 sequence (whole entry): T1 sequence (P46663 whole entry)

[8] = Half life in mongrel dog at 3 mg/kg, po or 1 mg/kg, iv; details: in vivo
[9] = Half life in rhesus monkey at 3 mg/kg, po or 1 mg/kg, iv; details: in vivo
in vivo [10] = details: mongrel, dog, po, 3 mg/kg
in vivo [11] = details: rhesus monkey, po, 3 mg/kg

Row | Ki (B1 bradykinin receptor) [nM] | Papp [1] [×10⁻⁶ cm/s] | half-life [2] [h] | bioavailability (in vivo [4]) [%] | Occ90 [7] [nM] | SMILES | other results
1 | 0.68 | 27 | 0.8 | 21 |  | COC(=O)c1c(F)cc(Cl)cc1-c1ccc([C@@H](C)NC(=O)C2(NC(=O)C(F)(F)F)CC2)c(F)c1 | clearance [3]: 13 mL/min/kg
2 |  |  |  |  | 520 | COC(=O)c1c(Cl)cccc1-c1ccc([C@@H](C)NC(=O)C2(NC(=O)C(F)(F)F)CC2)c(F)c1 [MK0686] | Kp at 0.5 h ([5]; brain and plasma): 0.4; logP [6]: > 3.6
3 | 1.8 |  |  |  |  | CCOC(=O)c1c(Cl)cc(Cl)cc1-c1cnc([C@@H](C)NC(=O)C2(NC(=O)C(F)(F)F)CC2)c(F)c1 | 
4 | 7.6 |  |  |  |  | Cc1noc(-c2ccc(Cl)cc2-c2ccc([C@@H](C)NC(=O)C3(NC(=O)C(F)(F)F)CC3)c(F)c2)n1 | 
5 | 2.4 | 23 | 5.6 | 39 |  | Cc1nc(-c2c(Cl)cc(Cl)cc2-c2ccc([C@@H](C)NC(=O)C3(NC(=O)C(F)(F)F)CC3)c(F)c2)no1 | clearance [3]: 0.8 mL/min/kg
6 | 1.45 |  |  |  |  | C[C@@H](NC(=O)C1(NC(=O)C(F)(F)F)CC1)c1ccc(-c2cc(Cl)ccc2-c2nnn(C)n2)cc1F | 
7 | 0.77 |  |  |  | 350 | COC(=O)c1c(Cl)cccc1-c1cnc([C@@H](C)NC(=O)C2(NC(=O)C(F)(F)F)CC2)c(F)c1 | 
8 | 1.2 | 28 | 0.8 | 52 | 225 | CCOC(=O)c1c(Cl)cccc1-c1cnc([C@@H](C)NC(=O)C2(NC(=O)C(F)(F)F)CC2)c(F)c1 | Kp at 0.5 h ([5]; brain and plasma): 0.7; logP [6]: 3.6; clearance [3]: 6.8 mL/min/kg; half-life [8]: 2.3 h; half-life [9]: 1.1 h; bioavailability (in vivo [10]): 20%; bioavailability (in vivo [11]): 12%
9 | 3.8 |  |  |  |  | C[C@@H](NC(=O)C1(NC(=O)C(F)(F)F)CC1)c1ncc(-c2cc(Cl)cc(Cl)c2-c2nnn(C)n2)cc1F | 
10 | 1.85 |  |  |  |  | CCOC(=O)c1c(Cl)cc(Cl)cc1-c1ccc([C@@H](C)NC(=O)C2(NC(=O)C(F)(F)F)CC2)c(F)c1 | 
11 | 134 |  |  |  |  | COC(=O)c1cc(Cl)ccc1-c1ccc([C@@H](C)NC(=O)C2(NC(=O)C(F)(F)F)CC2)c(F)c1 | 
12 | 1.39 |  |  |  |  | Cc1nc(-c2ccc(Cl)cc2-c2ccc([C@@H](C)NC(=O)C3(NC(=O)C(F)(F)F)CC3)c(F)c2)no1 | 
13 | 1.1 | 23 | 3.5 | 64 |  | C[C@@H](NC(=O)C1(NC(=O)C(F)(F)F)CC1)c1ccc(-c2cc(Cl)cc(F)c2-c2nnn(C)n2)cc1F | clearance [3]: 2.3 mL/min/kg
14 | 1.58 |  |  |  | 540 | C[C@@H](NC(=O)C1(NC(=O)C(F)(F)F)CC1)c1ccc(-c2cc(Cl)cc(Cl)c2-c2nnn(C)n2)cc1F | 
15 | 0.46 | 18 | 4.6 | 38 | 450 | COC(=O)c1c(Cl)cc(Cl)cc1-c1ccc([C@@H](C)NC(=O)C2(NC(=O)C(F)(F)F)CC2)c(F)c1 | Kp at 0.5 h ([5]; brain): 1.1; logP [6]: > 3.8; half-life [9]: 3.9 h; bioavailability (in vivo [10]): 19%; bioavailability (in vivo [11]): 20%
16 | 2.05 |  |  |  |  | COC(=O)c1ccc(Cl)cc1-c1ccc([C@@H](C)NC(=O)C2(NC(=O)C(F)(F)F)CC2)c(F)c1 | 
17 | 2.6 | 29 | 1.3 | 19 | 210 | COC(=O)c1c(Cl)cc(Cl)cc1-c1cnc([C@@H](C)NC(=O)C2(NC(=O)C(F)(F)F)CC2)c(F)c1 | Kp at 0.5 h ([5]; brain and plasma): 0.8; logP [6]: 3.3; clearance [3]: 16.6 mL/min/kg; half-life [8]: 6.6 h; half-life [9]: 2.5 h; bioavailability (in vivo [10]): 66%; bioavailability (in vivo [11]): 12%
